Reference: patent publication US10947575B2, “Rapid antimicrobial susceptibility test, based on an analysis of changes in morphology and growth pattern of a microbial cell under different concentrations of various antimicrobial agents, and automated cell image analysis system therefor” (priority 2014, dated 2021)

Tests used:
E. coli ATCC 25922 [1] = assay: AST by analysis of changes in morphology and growth pattern of a microbial cell (MAC 2.0 chip imaging); format: cell-based; settings: Normal / Filament / Swelling
Excerpt: (§1) Four reference strains (E. coli ATCC 25922, S. aureus ATCC 29213, P. aeruginosa ATCC 27853, and E. faecalis ATCC 29212) were used as objective strains, in accordance with Clinical and Laboratory Standards Institute (CLSI) guidelines. […] The bacterial cell in MAC 2.0TM (QuantaMatrix) was monitored through a S Plan Fluor ELWD 60X (NA 1.49) lens of an inverted optical microscope (Eclipse Ti-Nikon, IX71-Olympus) provided in a heating system, and then, an electron multiplying CCD camera (QuantEM:512SC Photometrics for Eclipse Ti) was used to obtain images of a region where is adjacent to an interface between the agarose well of MAC 2.0TM and the antimicrobial agents well, over time.

E. faecalis ATCC 29212 [2] = assay: as above; format: cell-based; settings: RRG = relatively rapid growth, RSG = relatively slow growth
Excerpt: as §1

P. aeruginosa ATCC 27853 [3] = assay: as above; format: cell-based; settings: Normal / Filament / Swelling
Excerpt: as §1

S. aureus ATCC 29213 [4] = assay: as above; format: cell-based; settings: RRG = relatively rapid growth, RSG = relatively slow growth
Excerpt: as §1

E. coli ATCC 25922 [5] = assay: MIC by the proposed method (SCMA), from morphology and growth pattern changes; format: cell-based; settings: time to result 3 hr, unit assumed
Excerpt: (§2) The bacterial cell in MAC 2.0™ (QuantaMatrix) was monitored through a S Plan Fluor ELWD 60X (NA 1.49) lens of an inverted optical microscope (Eclipse Ti—Nikon, IX71—Olympus) provided in a heating system, and then, an electron multiplying CCD camera (QuantEM:512SC Photometrics for Eclipse Ti) was used to obtain images of a region where is adjacent to an interface between the agarose well of MAC 2.0™ and the antimicrobial agents well, over time. […] In the AST method according to the inventive concept, minimal inhibitory concentration (MIC) was measured using the changes in morphology and growth pattern of the four reference strains (i.e., E. coli ATCC 25922, S. aureus ATCC 29213, P. aeruginosa ATCC 27853, and E. faecalis ATCC 29212) and was compared with MIC quality control (QC) per CLSI guidelines.

E. faecalis ATCC 29212 [6] = assay: as above; format: cell-based; settings: time to result 4 hr
Excerpt: as §2

P. aeruginosa ATCC 27853 [7] = assay: as above; format: cell-based; settings: time to result 3 hr
Excerpt: as §2

S. aureus ATCC 29213 [8] = assay: as above; format: cell-based; settings: time to result 4 hr
Excerpt: as §2

E. coli ATCC 25922 [9] = settings: time to result 16~20 hr; cited from earlier work
P. aeruginosa ATCC 27853 [10] = settings: time to result 16~20 hr; cited from earlier work
S. aureus ATCC 29213 [11] = settings: time to result 16~20 hr; cited from earlier work
E. faecalis ATCC 29212 [12] = settings: time to result 16~20 hr, unit assumed; cited from earlier work

Gentamicin
Criteria (change in morphology and growth pattern) (E. coli ATCC 25922 [1]): Normal | Criteria (change in morphology and growth pattern) (E. faecalis ATCC 29212 [2]): Normal | Criteria (change in morphology and growth pattern) (P. aeruginosa ATCC 27853 [3]): Normal growth | Criteria (change in morphology and growth pattern) (S. aureus ATCC 29213 [4]): Normal growth | SCMA Results (MIC) (E. coli ATCC 25922 [5]): 0.25 µg/mL | SCMA Results (MIC) (E. faecalis ATCC 29212 [6]): ≤ 500 µg/mL | SCMA Results (MIC) (P. aeruginosa ATCC 27853 [7]): 0.5~1 | SCMA Results (MIC) (S. aureus ATCC 29213 [8]): 0.25~0.5 | CLSI QC range (MIC) (E. coli ATCC 25922 [9]): 0.25~1 | CLSI QC range (MIC) (P. aeruginosa ATCC 27853 [10]): 0.5~2 | CLSI QC range (MIC) (S. aureus ATCC 29213 [11]): 0.12~1 | CLSI QC range (MIC) (E. faecalis ATCC 29212 [12]): ≤ 500 µg/mL
